Results from the supplement of paper PMC13380429.

Legend:
[1] = system: A549-ACE2 infected with SARS-CoV-2; assay: morphology score (similarity to uninfected cells); higher = more like uninfected cells; details: 24 h
[2] = system: U2OS; assay: drug sensitivity score (DSS) for viability; higher = more toxic; extreme values may be limits of the assay; details: 72 h
[3] = system: Calu-3; assay: as above; details: 72 h
[4] = system: HepG2; assay: as above; details: 72 h
[5] = system: U2OS; assay: relative viability EC50 (midpoint between 100% and the lowest measured viability); higher = less toxic; details: 72 h
[6] = system: Vero E6; assay: as above; details: 72 h
[7] = system: Calu-3; assay: as above; details: 72 h
[8] = system: A549-ACE2 infected with SARS-CoV-2; assay: cell count relative to DMSO; higher = less toxic; details: 24 h
[9] = system: Caco-2; assay: cell viability relative to DMSO; higher = less toxic; details: 72 h
[10] = system: U2OS; assay: as above; details: 72 h
[11] = system: Vero E6; assay: as above; details: 72 h
[12] = system: Calu-3; assay: as above; details: 72 h
[13] = system: HepG2; assay: as above; details: 72 h
[14] = system: Caco-2; assay: drug sensitivity score (DSS) for viability; higher = more toxic; extreme values may be limits of the assay; details: 72 h
[15] = system: Vero E6; assay: as above; details: 72 h
[16] = system: A549-ACE2; assay: drug-induced phospholipidosis relative to tamoxifen; higher = more phospholipidosis
[17] = system: A549-ACE2 infected with SARS-CoV-2; assay: SARS-CoV-2 infection rate relative to DMSO; higher = more infection; details: 24 h
[18] = system: Caco-2; assay: relative viability EC50 (midpoint between 100% and the lowest measured viability); higher = less toxic; details: 72 h
[19] = system: HepG2; assay: as above; details: 72 h

CCN(CC)CCCC(C)Nc1ccnc2cc(Cl)ccc12 (configuration not stated) [chloroquine]
[1]
Details | morphology score
0.3 µM | 0.17
3 µM | 0.37
10 µM | 0.63
30 µM | 0.8

Details | drug sensitivity score
[2] | 0
[3] | 0
[4] | 0.6

COc1cc2ncnc(Sc3nnc(C)s3)c2cc1OC [SKLB1002]
Details | SARS-CoV-2 infection rate, [17] [%] | cell count, [8] [%] | cell viability, [9] [%] | cell viability, [10] [%] | cell viability, [11] [%] | cell viability, [12] [%] | cell viability, [13] [%] | morphology score, [1]
1 nM | – | – | 101 | 99.1 | 96.2 | 103 | 104 | –
10 nM | – | – | 92 | 99.4 | 94.8 | 99.2 | 99.6 | –
100 nM | – | – | 97.7 | 102 | 92.7 | 96.3 | 105 | –
0.3 µM | 105 | 102 | – | – | – | – | – | -0.11
1000 nM | – | – | 94.4 | 102 | 98.4 | 92.1 | 105 | –
3 µM | 105 | 102 | – | – | – | – | – | -0.15
10 µM | 106 | 97 | – | – | – | – | – | 0.01
10000 nM | – | – | 73.7 | 88.3 | 87.8 | 107 | 59.1 | –
30 µM | 79 | 85 | – | – | – | – | – | 0.25

Details | drug sensitivity score | relative viability EC50 [µM]
[2] | 0 | –
[3] | 0 | –
[4] | 1.7 | –
[5] | – | > 10
[6] | – | > 10
[7] | – | > 10
[14] | 1.9 | –
[15] | 0 | –

drug-induced phospholipidosis [%], [16]
Details | 0.3 µM | 0.833333 µM | 3.33333 µM | 6.66667 µM | 10 µM | 30 µM
24 h | 7.29 | 1.02 | 4.5 | 10.7 | 22.8 | 44.1
48 h | 7.01 | -1.13 | -0.08 | 3.84 | 12.5 | –
72 h | 8.05 | -2.71 | -0.571 | -0.945 | 0.143 | –

CCN(CC)C(=S)SSC(=S)N(CC)CC [disulfiram]
Details | SARS-CoV-2 infection rate, [17] [%] | cell count, [8] [%] | cell viability, [9] [%] | cell viability, [10] [%] | cell viability, [11] [%] | cell viability, [12] [%] | cell viability, [13] [%] | morphology score, [1]
1 nM | – | – | 103 | 100 | 108 | 101 | 104 | –
10 nM | – | – | 90.1 | 99.6 | 104 | 90.5 | 103 | –
100 nM | – | – | 19.1 | 99 | 101 | 94.7 | 53.2 | –
0.3 µM | 84 | 105 | – | – | – | – | – | 0.44
1000 nM | – | – | 9.6 | 78 | 89.3 | 36.9 | 13.7 | –
3 µM | 76 | 106 | – | – | – | – | – | 0.45
10 µM | 27 | 63 | – | – | – | – | – | 0.51
10000 nM | – | – | 75.3 | 94.6 | 99.6 | 106 | 95 | –
30 µM | 32 | 58 | – | – | – | – | – | 0.35

Details | drug sensitivity score | relative viability EC50
[2] | 0.2 | –
[3] | 0 | –
[4] | 21.4 | –
[5] | – | > 10 µM
[6] | – | > 10 µM
[7] | – | > 10 µM
[14] | 27.5 | –
[15] | 0 | –
[18] | – | 31.4 nM
[19] | – | 93.6 nM

drug-induced phospholipidosis [%], [16]
Details | 0.3 µM | 0.833333 µM | 3.33333 µM | 6.66667 µM | 10 µM | 30 µM
24 h | 2.43 | -1.42 | 2.59 | -0.54 | 2.87 | 7.83
48 h | – | – | – | -0.28 | 1.88 | –
72 h | – | – | – | 1.75 | 1.77 | –

O=C(NCc1ccccc1)c1csc(Nc2ccncn2)n1 [thiazovivin]
Details | SARS-CoV-2 infection rate, [17] [%] | cell count, [8] [%] | cell viability, [9] [%] | cell viability, [10] [%] | cell viability, [11] [%] | cell viability, [12] [%] | cell viability, [13] [%] | morphology score, [1]
1 nM | – | – | 95.1 | 105 | 101 | 102 | 90.1 | –
10 nM | – | – | 96.8 | 100 | 101 | 95.5 | 97.8 | –
0.1 µM | 98 | 115 | – | – | – | – | – | 0.31
100 nM | – | – | 97.3 | 100 | 99.1 | 109 | 101 | –
0.3 µM | 101 | 108 | – | – | – | – | – | 0.18
1 µM | 98 | 90 | – | – | – | – | – | 0.16
1000 nM | – | – | 100 | 93.9 | 88.7 | 126 | 93.8 | –
3 µM | 108 | 88 | – | – | – | – | – | -0.1
10000 nM | – | – | 88.4 | 85.9 | 64.7 | 138 | 73.9 | –

Details | drug sensitivity score | relative viability EC50
[2] | 0.6 | –
[3] | 0 | –
[4] | 1.9 | –
[5] | – | > 10 µM
[7] | – | > 10 µM
[14] | 0 | –
[15] | 3.3 | –
[18] | – | > 10000 nM

drug-induced phospholipidosis [%], [16]
Details | 0.3 µM | 0.833333 µM | 3.33333 µM | 6.66667 µM | 10 µM | 30 µM
24 h | -0.85 | -1.1 | -1.59 | -0.13 | 1.72 | 4.97
48 h | -1.39 | -3.9 | -3.92 | -1.45 | -1.05 | 3.79
72 h | -0.652 | -4.81 | -3.84 | -1.69 | 1.23 | –
